Data from ChEMBL document CHEMBL5376004, “Discovery and Development of Quinazolinones and Quinazolinediones for Ameliorating Nonalcoholic Fatty Liver Disease (NAFLD) by Modulating COP1-ATGL Axis” (J Med Chem, 2023).
Values after ≈ are worked out from the molar mass of the structure shown. Active and inactive are the calls of the source. No cut-off for these calls is given here.

Experiments:
Mus musculus [1] = assay: Anti-NASH activity in high-fat diet induced nonalcoholic steatohepatitis C57BL/6 mouse assessed as reduction in accumulation of fat droplets at 80 mg/kg, po administered for 1 month by H and E staining based assay; assay type: functional, organism-based; settings: time 1.0 months
Hepatocyte [2] = assay: Reduction in lipid droplets in oleate induced mouse primary hepatocytes at 100 nM by BODIPY493/503 staining based confocal microscopic analysis; assay type: functional, cell-based
[3] = molecular target: T1, Patatin-like phospholipase domain-containing protein 2 (Homo sapiens) (UniProt Q96AD5); assay: Inhibition of ATGL ubiquitination in human HepG2 cells preincubated for 20 hrs followed by MG132 addition and measured after 4 hrs by immunoprecipitation method; assay type: cell-based; settings: time 24.0 hrs
T1 sequence (whole entry): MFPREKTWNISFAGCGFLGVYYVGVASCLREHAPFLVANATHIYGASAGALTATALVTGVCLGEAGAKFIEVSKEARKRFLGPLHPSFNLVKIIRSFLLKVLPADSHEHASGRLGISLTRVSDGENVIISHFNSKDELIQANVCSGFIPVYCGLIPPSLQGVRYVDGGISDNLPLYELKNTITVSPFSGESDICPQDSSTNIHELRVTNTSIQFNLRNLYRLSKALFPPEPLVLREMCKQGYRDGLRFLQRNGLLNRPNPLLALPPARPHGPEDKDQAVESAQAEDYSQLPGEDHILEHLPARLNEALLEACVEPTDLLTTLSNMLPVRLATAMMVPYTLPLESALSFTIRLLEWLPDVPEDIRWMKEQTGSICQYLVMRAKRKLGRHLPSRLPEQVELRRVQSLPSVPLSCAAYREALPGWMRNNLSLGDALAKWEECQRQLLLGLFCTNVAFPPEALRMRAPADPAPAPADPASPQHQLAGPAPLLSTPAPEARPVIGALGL

HepG2 [4] = assay: Reduction in lipid droplets in human HepG2 cells at 100 nM incubated for 24 hrs by Hoechst 33342 staining based confocal microscopic analysis; assay type: functional, cell-based
Mus musculus [5] = assay: Upregulation of COP1 expression level in C57BL/6 mouse adipose tissue at 80 mg/kg, po administered for 7 days; assay type: functional, organism-based; settings: time 7.0 day
HepG2 [6] = assay: Cytotoxicity against human HepG2 cells upto 5 uM incubated for 24 hrs by MTT assay; assay type: toxicity, cell-based; settings: hepg2, 24 h
Mus musculus [7] = assay: Anti-NASH activity in high-fat diet induced nonalcoholic steatohepatitis C57BL/6 mouse assessed as reduction in liver weight at 80 mg/kg, po administered for 1 month; assay type: functional, organism-based; settings: time 1.0 months
Mus musculus [8] = assay: Anti-NASH activity in high-fat diet induced nonalcoholic steatohepatitis C57BL/6 mouse assessed as reduction in liver triglyceride level at 80 mg/kg, po administered for 1 month; assay type: functional, organism-based; settings: time 1.0 months
[9] = Metabolic stability in human liver microsomes assessed as half life; assay type: ADME, Microsome
[10] = Toxicity in C57BL/6 mouse assessed as change in liver morphology by H and E staining based histological analysis; assay type: tissue-based; settings: in vivo
HepG2 [11] = assay: Effect on ATGL mRNA level in human HepG2 cells at 50 to 5000 nM after 24 hrs by RT-qPCR analysis; assay type: functional, cell-based; settings: dose 50-5000 nM
Mus musculus [12] = assay: Upregulation of COP1 expression level in C57BL/6 mouse liver at 80 mg/kg, po administered for 7 days; assay type: functional, organism-based; settings: time 7.0 day
[13] = Toxicity in C57BL/6 mouse assessed as change in kidney tubular structure; assay type: tissue-based; settings: in vivo
[14] = Metabolic stability in mouse liver microsomes assessed as intrinsic clearance per mg of protein; assay type: ADME, Microsome; settings: read-out: CLH
Mus musculus [15] = assay: Anti-NASH activity in high-fat diet induced nonalcoholic steatohepatitis C57BL/6 mouse assessed as reduction in body weight at 80 mg/kg, po administered for 1 month; assay type: functional, organism-based; settings: time 1.0 months
[16] = Metabolic stability in mouse liver microsomes assessed as half life; assay type: ADME, Microsome
HepG2 [17] = assay: Effect on COP1 in human HepG2 cells assessed as change in c-Jun level at 10 to 500 nM by RT-qPCR analysis; assay type: functional, cell-based; settings: dose 10-500 nM
[18] = Metabolic stability in mouse liver microsomes assessed as hepatic blood flow; assay type: ADME, Microsome; settings: read-out: QH
[19] = molecular target: T1, Patatin-like phospholipase domain-containing protein 2 (Homo sapiens); assay: Inhibition of ATGL ubiquitination (unknown origin) expressed in HEK293-A cells incubated for 6 hrs by Western blotting analysis; assay type: cell-based
HepG2 [20] = assay: Effect on COP1 in human HepG2 cells assessed as change in p53 level at 10 to 500 nM by RT-qPCR analysis; assay type: functional, cell-based; settings: dose 10-500 nM
Hepatocyte [21] = assay: Upregulation of ATGL protein level in mouse primary hepatocytes incubated for 24 hrs by Western blotting analysis; assay type: functional, cell-based; settings: dose 10-500 nM
Mus musculus [22] = species on record: Mus musculus; assay: Upregulation of ATGL protein level in mouse primary adipose tissue incubated for 24 hrs by Western blotting analysis; assay type: functional, tissue-based; settings: dose 100-1000 nM
Mus musculus [23] = assay: Anti-NASH activity in high-fat diet induced nonalcoholic steatohepatitis C57BL/6 mouse assessed as reduction in liver collagen fiber content at 80 mg/kg, po administered for 1 month by sirius red staining based assay; assay type: functional, organism-based; settings: time 1.0 months
[24] = Lipophilicity, logD of compound; assay type: physicochemical; settings: octanol/water
[25] = Metabolic stability in human liver microsomes assessed as intrinsic clearance per mg of protein; assay type: ADME, Microsome; settings: read-out: CLH
HepG2 [26] = assay: Reduction in lipid droplets in human HepG2 cells by […] staining based confocal microscopic analysis; assay type: functional, cell-based
Mus musculus [27] = assay: Upregulation of ATGL expression level in C57BL/6 mouse adipose tissue at 80 mg/kg, po administered for 7 days; assay type: functional, organism-based; settings: time 7.0 day
Mus musculus [28] = assay: Upregulation of ATGL expression level in C57BL/6 mouse liver at 80 mg/kg, po administered for 7 days; assay type: functional, organism-based; settings: time 7.0 day
COP1-AGTL (Homo sapiens) = COP1-AGTL (Homo sapiens) (UniProt Q96AD5+Q8NHY2); assay: Induction of COP1 to ATGL stabilization (unknown origin) expressed in HEK293-A cells assessed as reduction in ATGL ubiquitination incubated for 6 hrs by Western blotting analysis; assay type: cell-based
[29] = Toxicity in C57BL/6 mouse assessed as change in kidney morphology by H and E staining based histological analysis; settings: in vivo
[30] = molecular target: E3 ubiquitin-protein ligase COP1 (Homo sapiens) (UniProt Q8NHY2); assay: Inhibition of COP1 auto-ubiquitination in human HepG2 cells preincubated for 20 hrs followed by MG132 addition and measured after 4 hrs by immunoprecipitation method; assay type: cell-based; settings: time 24.0 hrs
[31] = Aqueous solubility of compound at pH 7.4; assay type: physicochemical
[32] = Stability in mouse plasma assessed as compound remaining after 2 hrs; assay type: ADME, cell-free; settings: read-out: Stability
[33] = Stability in human plasma assessed as compound remaining after 2 hrs; assay type: ADME, cell-free; settings: read-out: Stability
[34] = Toxicity in C57BL/6 mouse assessed as inflammatory infiltration; settings: in vivo
Mus musculus [35] = assay: Anti-NASH activity in high-fat diet induced nonalcoholic steatohepatitis C57BL/6 mouse assessed as reduction in liver size at 80 mg/kg, po administered for 1 month; assay type: functional, organism-based; settings: time 1.0 months
Mus musculus [36] = assay: Anti-NASH activity in high-fat diet induced nonalcoholic steatohepatitis C57BL/6 mouse assessed as appearance of darker liver at 80 mg/kg, po administered for 1 month; assay type: functional, organism-based; settings: time 1.0 months
[37] = Metabolic stability in human liver microsomes assessed as hepatic blood flow; assay type: ADME, Microsome; settings: read-out: QH
[38] = Toxicity in C57BL/6 mouse assessed as change in lung morphology by H and E staining based histological analysis; assay type: tissue-based; settings: in vivo

Sequence of COP1-AGTL (Homo sapiens) (Q8NHY2 whole entry, looked up, one chain of several): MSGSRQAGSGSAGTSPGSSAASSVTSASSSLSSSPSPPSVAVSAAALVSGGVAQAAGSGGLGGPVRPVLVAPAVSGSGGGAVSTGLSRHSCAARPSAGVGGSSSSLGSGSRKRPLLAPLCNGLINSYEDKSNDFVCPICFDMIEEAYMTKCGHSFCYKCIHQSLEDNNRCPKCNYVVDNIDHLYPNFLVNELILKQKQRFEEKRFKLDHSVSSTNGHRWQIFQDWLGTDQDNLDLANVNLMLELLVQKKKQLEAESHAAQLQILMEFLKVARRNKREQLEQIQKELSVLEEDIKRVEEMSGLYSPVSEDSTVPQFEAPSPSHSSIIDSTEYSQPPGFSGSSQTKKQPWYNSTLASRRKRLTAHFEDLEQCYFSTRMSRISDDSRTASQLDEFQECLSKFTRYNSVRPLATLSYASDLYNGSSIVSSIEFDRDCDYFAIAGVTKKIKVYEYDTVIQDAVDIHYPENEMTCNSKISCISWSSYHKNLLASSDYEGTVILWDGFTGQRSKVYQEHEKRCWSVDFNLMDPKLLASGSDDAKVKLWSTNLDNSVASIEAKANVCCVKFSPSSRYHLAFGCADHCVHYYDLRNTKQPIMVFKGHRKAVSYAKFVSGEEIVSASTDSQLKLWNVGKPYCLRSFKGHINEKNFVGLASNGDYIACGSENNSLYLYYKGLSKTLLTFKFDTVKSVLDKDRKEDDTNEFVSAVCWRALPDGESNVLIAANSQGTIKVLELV
Sequence of E3 ubiquitin-protein ligase COP1 (Homo sapiens) (Q8NHY2 whole entry): as the sequence (Q8NHY2 whole entry, looked up, one chain of several) above

half-life [9] [min] | microsomal CLint [14] [µL/min/mg] | half-life [16] [min] | hepatic extraction ratio [18] | inhibition [19] | SMILES | Activity (Mus musculus [1]) | Activity (Mus musculus [5]) | Activity (HepG2 [6]) | Activity (Mus musculus [7]) | Activity (Mus musculus [8]) | Activity [10] | Activity (HepG2 [11]) | Activity (Mus musculus [12]) | Activity [13] | Activity (Mus musculus [15]) | Activity (HepG2 [17]) | Activity (HepG2 [20]) | Activity (Hepatocyte [21]) | Activity (Mus musculus [22]) | Activity (Mus musculus [23]) | further results
24.5 | 56.2 | 12.3 | 0.605 | Active | COCCn1c(=O)c2cc(NC(=O)Nc3cccc(C(C)=O)c3)ccc2n(CCN2CCCCC2)c1=O | Active | inactive | Non-Toxic | Active | Active | Non-Toxic | inactive | Active | Non-Toxic | Active | inactive | inactive | Dose-Dependent Effect | inactive | Active | Activity (Hepatocyte [2]): Active; inhibition [3]: Active; Activity (HepG2 [4]): Active; logD [24]: 2.78; microsomal CLint [25]: 28.3 µL/min/mg; Activity (HepG2 [26]): Active; Activity (Mus musculus [27]): inactive; Activity (Mus musculus [28]): Active; Activity (COP1-AGTL (Homo sapiens)): Active; Activity [29]: Non-Toxic; inhibition [30]: Active; solubility [31]: 116 µg/mL (≈ 228 µM); remaining at 2 h [32]: 103%; remaining at 2 h [33]: 110%; Activity [34]: Non-Toxic; Activity (Mus musculus [35]): Active; Activity (Mus musculus [36]): Active; hepatic extraction ratio [37]: 0.567; Activity [38]: Non-Toxic
119 | 8.15 | 87 | 0.181 | Active | COCCn1cnc2ccc(NC(=O)Nc3cccc(C(C)=O)c3)cc2c1=O | Active | inactive | Non-Toxic | Active | Active | Non-Toxic | inactive | Active | Non-Toxic | Active | inactive | inactive | Dose-Dependent Effect | inactive | Active | logD [24]: 2.38; microsomal CLint [25]: 5.84 µL/min/mg; Activity (HepG2 [26]): Active; Activity (Mus musculus [27]): inactive; Activity (Mus musculus [28]): Active; Activity (COP1-AGTL (Homo sapiens)): Active; Activity [29]: Non-Toxic; solubility [31]: 2.56 µg/mL (≈ 6.73 µM); remaining at 2 h [32]: 14.2%; remaining at 2 h [33]: 16.9%; Activity [34]: Non-Toxic; Activity (Mus musculus [35]): Active; Activity (Mus musculus [36]): Active; hepatic extraction ratio [37]: 0.213; Activity [38]: Non-Toxic
